The target in one experiment is human TACE (Homo sapiens (Human), UniProt P78536). The note with it: read-out: TACE potency IC50.
In another experiment the target is human MMP13 (Homo sapiens (Human), UniProt P45452). The note with it: read-out: hMMP-13 potency IC50.
A further experiment concerns the target human ADAMTS-5 (Homo sapiens (Human), UniProt Q9UNA0). The note with it: read-out: hADAMTS-5 potency IC50.

What is called IC50 is the point on the concentration scale where inhibition reaches its midpoint.

Chain of human TACE (P78536 whole entry, looked up, change not shown): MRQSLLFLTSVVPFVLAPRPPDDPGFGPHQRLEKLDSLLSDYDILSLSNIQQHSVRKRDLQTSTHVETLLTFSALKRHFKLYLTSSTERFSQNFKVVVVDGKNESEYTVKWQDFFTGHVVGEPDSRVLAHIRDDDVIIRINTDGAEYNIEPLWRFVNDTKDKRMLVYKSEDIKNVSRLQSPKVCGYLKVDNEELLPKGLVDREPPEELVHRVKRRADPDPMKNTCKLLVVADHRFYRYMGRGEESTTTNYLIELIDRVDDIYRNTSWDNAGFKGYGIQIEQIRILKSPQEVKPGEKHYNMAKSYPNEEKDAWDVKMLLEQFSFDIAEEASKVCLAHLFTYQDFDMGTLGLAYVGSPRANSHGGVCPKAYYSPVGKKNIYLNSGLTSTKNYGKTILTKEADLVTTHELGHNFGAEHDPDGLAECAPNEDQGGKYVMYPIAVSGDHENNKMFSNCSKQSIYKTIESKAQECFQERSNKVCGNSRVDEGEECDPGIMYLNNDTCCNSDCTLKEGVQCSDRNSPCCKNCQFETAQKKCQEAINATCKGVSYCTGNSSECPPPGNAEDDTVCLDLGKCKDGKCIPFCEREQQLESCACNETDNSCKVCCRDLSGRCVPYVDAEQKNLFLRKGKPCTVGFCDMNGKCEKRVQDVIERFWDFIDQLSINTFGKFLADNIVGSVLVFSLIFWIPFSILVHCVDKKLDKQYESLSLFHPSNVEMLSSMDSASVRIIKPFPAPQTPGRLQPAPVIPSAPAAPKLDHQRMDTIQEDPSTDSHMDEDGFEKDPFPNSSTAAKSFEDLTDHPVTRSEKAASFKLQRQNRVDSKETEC
Chain of human ADAMTS-5 (Q9UNA0 262-930): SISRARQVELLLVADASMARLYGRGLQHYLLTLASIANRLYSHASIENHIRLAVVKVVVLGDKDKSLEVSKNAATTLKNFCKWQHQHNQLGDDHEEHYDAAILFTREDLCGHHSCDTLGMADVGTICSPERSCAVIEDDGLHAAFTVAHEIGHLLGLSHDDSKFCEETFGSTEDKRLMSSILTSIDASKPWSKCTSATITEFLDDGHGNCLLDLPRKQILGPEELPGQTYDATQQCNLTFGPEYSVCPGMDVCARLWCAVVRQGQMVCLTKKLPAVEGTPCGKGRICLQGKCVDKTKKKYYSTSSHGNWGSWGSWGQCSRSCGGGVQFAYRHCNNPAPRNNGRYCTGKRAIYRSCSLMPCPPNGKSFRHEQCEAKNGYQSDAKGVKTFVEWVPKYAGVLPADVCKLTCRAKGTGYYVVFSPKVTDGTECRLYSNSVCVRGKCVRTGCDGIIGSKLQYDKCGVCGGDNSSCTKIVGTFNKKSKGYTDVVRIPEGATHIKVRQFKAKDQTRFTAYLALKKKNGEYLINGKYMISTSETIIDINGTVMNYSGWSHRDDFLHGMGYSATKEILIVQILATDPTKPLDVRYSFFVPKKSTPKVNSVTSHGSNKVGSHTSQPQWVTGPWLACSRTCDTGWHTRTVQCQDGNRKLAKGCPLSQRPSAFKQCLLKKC
Description for human ADAMTS-5: Finally, the fluorescence is read on the Envision (Perkin Elmer) after an incubation of 90 min at 37° C.
Description for human MMP13: Human MMP13 is preactivated by incubated the enzyme in the same buffer complemented with 1 mM freshly prepared p-Aminophenylmercuric acetate (AMPA) for 1 hour at 37° C.

With `CN(C)Cc1ccc(C2(CCC(=O)N3CCN(c4cccc(Cl)c4)CC3)NC(=O)NC2=O)cc1` (centres unmarked) [compound 83, 5-[3-[4-(3-chlorophenyl)piperazin-1-yl]-3-oxo-propyl]-5-[4-(dimethylaminomethyl)phenyl]imidazolidine-2,4-dione], the IC50 at human TACE is 2.49 µM; on human MMP13 it was more than 4 µM.
Regarding `CN(C)CC1(CCC(=O)N2CCN(c3cccc(Cl)c3)CC2)NC(=O)NC1=O` (centres unmarked) [compound 118, 5-[3-[4-(3-chlorophenyl)piperazin-1-yl]-3-oxo-propyl]-5-(dimethylaminomethyl)imidazolidine-2,4-dione], the IC50 on human TACE was more than 4 µM; at human MMP13, more than 20 µM.
Turning to `Cc1ccc(Cl)cc1N1CCN(C(=O)CCC2(CN(C)C)NC(=O)NC2=O)CC1` (centres unmarked) [compound 120, 5-[3-[4-(5-chloro-2-methyl-phenyl)piperazin-1-yl]-3-oxo-propyl]-5-(dimethylaminomethyl)imidazolidine-2,4-dione], the figures for the IC50 on human TACE and on human MMP13 were more than 4 µM and more than 20 µM, respectively.
Take `CCC1(CCC(=O)N2CCN(c3cccc(Cl)c3)CC2)NC(=O)NC1=O` (centres unmarked) [compound 122, 5-[3-[4-(3-chlorophenyl)piperazin-1-yl]-3-oxo-propyl]-5-ethyl-imidazolidine-2,4-dione]: the IC50 is more than 4 µM at human TACE and more than 20 µM on human MMP13.
Turning to `CC1CN(C(=O)CCC2(c3cccnc3)NC(=O)NC2=O)CCN1c1cc(Cl)cc(Cl)c1` (centres unmarked) [compound 127, 5-[3-[4-(3,5-dichlorophenyl)-3-methyl-piperazin-1-yl]-3-oxo-propyl]-5-(3-pyridyl)imidazolidine-2,4-dione], the IC50 is more than 4 µM on human TACE and more than 20 µM on human MMP13.
With `CC1(CCC(=O)N2CCN(c3cc(F)cc(F)c3)CC2)NC(=O)NC1=O` (centres unmarked) [compound 140, 5-[3-[4-(3,5-difluorophenyl)piperazin-1-yl]-3-oxo-propyl]-5-methyl-imidazolidine-2,4-dione], the IC50 at human TACE is more than 20 µM; on human MMP13 it was more than 4 µM.
`O=C1NC(=O)C(CCC(=O)N2CCN(c3cccc(Cl)c3)CC2)(CN2CCOCC2)N1` (centres unmarked) [compound 155, 5-[3-[4-(3-chlorophenyl)piperazin-1-yl]-3-oxo-propyl]-5-(morpholinomethyl)imidazolidine-2,4-dione]: the IC50 on human ADAMTS-5 was 1.25 µM; on human TACE, more than 20 µM; at human MMP13, more than 20 µM.
Take `C[C@H]1CN(C(=O)CCC2(C)NC(=O)NC2=O)CCN1c1ccc(F)c(F)c1` (stereo partly drawn) [compound 165, 5-[3-[(3S)-4-(3,4-difluorophenyl)-3-methyl-piperazin-1-yl]-3-oxo-propyl]-5-methyl-imidazolidine-2,4-dione]: the IC50 at human ADAMTS-5 is 0.207 µM; on human TACE, more than 20 µM; at human MMP13 it was more than 20 µM.
Take `C[C@H]1CN(C(=O)CCC2(C)NC(=O)NC2=O)CCN1c1ccc(F)c(Cl)c1` (stereo partly drawn) [compound 166, 5-[3-[(3S)-4-(3-chloro-4-fluoro-phenyl)-3-methyl-piperazin-1-yl]-3-oxo-propyl]-5-methyl-imidazolidine-2,4-dione]: the IC50 on human ADAMTS-5 was 0.264 µM; on human TACE, more than 20 µM; at human MMP13, more than 20 µM.
As for `O=C1NC(=O)C(CCC(=O)N2CCN(c3cc(Cl)cc(Cl)c3)CC2)(c2ccccn2)N1` (centres unmarked) [compound 407, 5-(3-(4-(3,5-dichlorophenyl)piperazin-1-yl)-3-oxopropyl)-5-(pyridin-2-yl)imidazolidine-2,4-dione], the IC50 at human TACE is 0.479 µM; at human MMP13 it was more than 20 µM.
As to `COCC1(CC(C)C(=O)N2CCN(c3cc(Cl)cc(Cl)c3C)[C@@H](C)C2)NC(=O)NC1=O` (stereo partly drawn) [compound 430, 5-(3-((S)-4-(3,5-dichloro-2-methylphenyl)-3-methylpiperazin-1-yl)-2-methyl-3-oxopropyl)-5-(methoxymethyl)imidazolidine-2,4-dione], the IC50 at human MMP13 was more than 20 µM.
`C[C@H]1CN(C(=O)CCC2(c3cccnc3)NC(=O)NC2=O)CCN1c1ccc(Cl)c(Cl)c1` (stereo partly drawn) [compound 453, 5-[3-[(3S)-4-(3,4-dichlorophenyl)-3-methyl-piperazin-1-yl]-3-oxo-propyl]-5-(3-pyridyl)imidazolidine-2,4-dione]: the IC50 on human ADAMTS-5 turned out to be 0.036 µM; at human TACE, 3.18 µM.
The corresponding values for `Cc1cccc(C2(CCC(=O)N3CCN(c4ccc(Cl)c(F)c4)[C@@H](C)C3)NC(=O)NC2=O)n1` (stereo partly drawn) [compound 454, 5-[3-[(3S)-4-(4-chloro-3-fluoro-phenyl)-3-methyl-piperazin-1-yl]-3-oxo-propyl]-5-(6-methyl-2-pyridyl)imidazolidine-2,4-dione] are 0.035 µM and 2.98 µM.
In the case of `Cc1cc(N2CCN(C(=O)C(C)CC3(C4CC4)NC(=O)NC3=O)C[C@@H]2C)ccc1F` (stereo partly drawn) [compound 456, 5-cyclopropyl-5-(3-((S)-4-(4-fluoro-3-methylphenyl)-3-methylpiperazin-1-yl)-2-methyl-3-oxopropyl)imidazolidine-2,4-dione], the IC50 on human ADAMTS-5 was 0.027 µM; at human TACE, more than 4 µM.
`C[C@H]1CN(C(=O)CCC2(c3ccccn3)NC(=O)NC2=O)CCN1c1ccc(Cl)c(Cl)c1` (stereo partly drawn) [compound 458, 5-[3-[(3S)-4-(3,4-dichlorophenyl)-3-methyl-piperazin-1-yl]-3-oxo-propyl]-5-(2-pyridyl)imidazolidine-2,4-dione]: the figures for the IC50 at human ADAMTS-5 and at human TACE were 0.021 µM and 2.38 µM, respectively.
On to `C[C@H]1CN(C(=O)CCC2(c3ccccn3)NC(=O)NC2=O)CCN1c1cc(Cl)cc(Cl)c1` (stereo partly drawn) [compound 459, 5-[3-[(3S)-4-(3,5-dichlorophenyl)-3-methyl-piperazin-1-yl]-3-oxo-propyl]-5-(2-pyridyl)imidazolidine-2,4-dione], for which the IC50 was 0.046 µM on human ADAMTS-5 and 1.74 µM at human TACE.
The corresponding values for `C[C@H]1CN(C(=O)CCC2(c3cnccn3)NC(=O)NC2=O)CCN1c1ccc(Cl)c(Cl)c1` (stereo partly drawn) [compound 460, 5-[3-[(3S)-4-(3,4-dichlorophenyl)-3-methyl-piperazin-1-yl]-3-oxo-propyl]-5-pyrazin-2-yl-imidazolidine-2,4-dione] are 0.03 µM and more than 4 µM.
Taken in the same sequence, the figures for `C[C@H]1CN(C(=O)CCC2(c3cnccn3)NC(=O)NC2=O)CCN1c1cc(Cl)cc(Cl)c1` (stereo partly drawn) [compound 461, 5-[3-[(3S)-4-(3,5-dichlorophenyl)-3-methyl-piperazin-1-yl]-3-oxo-propyl]-5-pyrazin-2-yl-imidazolidine-2,4-dione] were 0.039 µM and 2.54 µM.
Regarding `C[C@H]1CN(C(=O)CCC2(c3ncccn3)NC(=O)NC2=O)CCN1c1ccc(Cl)c(Cl)c1` (stereo partly drawn) [compound 462, 5-[3-[(3S)-4-(3,4-dichlorophenyl)-3-methyl-piperazin-1-yl]-3-oxo-propyl]-5-pyrimidin-2-yl-imidazolidine-2,4-dione], the IC50 at human ADAMTS-5 is 0.022 µM; on human TACE it was more than 4 µM.
The corresponding values for `C[C@H]1CN(C(=O)CCC2(c3ncccn3)NC(=O)NC2=O)CCN1c1cc(F)cc(Cl)c1` (stereo partly drawn) [compound 463, 5-[3-[(3S)-4-(3-chloro-5-fluoro-phenyl)-3-methyl-piperazin-1-yl]-3-oxo-propyl]-5-pyrimidin-2-yl-imidazolidine-2,4-dione] are 0.046 µM and more than 4 µM.
For the compound `Cc1ccc(C2(CCC(=O)N3CCN(c4ccc(Cl)c(Cl)c4)[C@@H](C)C3)NC(=O)NC2=O)cn1` (stereo partly drawn) [compound 464, 5-[3-[(3S)-4-(3,4-dichlorophenyl)-3-methyl-piperazin-1-yl]-3-oxo-propyl]-5-(6-methyl-3-pyridyl)imidazolidine-2,4-dione], the IC50 was 0.026 µM on human ADAMTS-5 and more than 4 µM on human TACE.
In the case of `C[C@H]1CN(C(=O)CCC2(c3cocn3)NC(=O)NC2=O)CCN1c1cc(Cl)cc(Cl)c1` (stereo partly drawn) [compound 465, 5-[3-[(3S)-4-(3,5-dichlorophenyl)-3-methyl-piperazin-1-yl]-3-oxo-propyl]-5-oxazol-4-yl-imidazolidine-2,4-dione], the figures for the IC50 on human ADAMTS-5 and at human TACE were 0.062 µM and 3.5 µM, respectively.
With `C[C@H]1CN(C(=O)CCC2(c3cn(C)cn3)NC(=O)NC2=O)CCN1c1cc(Cl)cc(Cl)c1` (stereo partly drawn) [compound 466, 5-[3-[(3S)-4-(3,5-dichlorophenyl)-3-methyl-piperazin-1-yl]-3-oxo-propyl]-5-(1-methylimidazol-4-yl)imidazolidine-2,4-dione], the IC50 on human ADAMTS-5 was 0.055 µM; at human TACE, 2.64 µM.
Taken in the same sequence, the figures for `C[C@H]1CN(C(=O)CCC2(c3cn(C)cn3)NC(=O)NC2=O)CCN1c1ccc(F)c(Cl)c1` (stereo partly drawn) [compound 467, 5-[3-[(3S)-4-(3-chloro-4-fluoro-phenyl)-3-methyl-piperazin-1-yl]-3-oxo-propyl]-5-(1-methylimidazol-4-yl)imidazolidine-2,4-dione] were 0.042 µM and more than 4 µM.
The corresponding values for `Cc1cc(N2CCN(C(=O)CC[C@@]3(C)NC(=O)NC3=O)C[C@@H]2C)cc(C)c1Cl` [compound 470, (5R)-5-[3-[(3S)-4-(4-chloro-3,5-dimethyl-phenyl)-3-methyl-piperazin-1-yl]-3-oxo-propyl]-5-methyl-imidazolidine-2,4-dione] are 0.383 µM and 2.93 µM.
Take `C[C@H]1CN(C(=O)CC[C@@]2(C)NC(=O)NC2=O)CCN1c1ccc(Cl)c(C(F)(F)F)c1` [compound 472, (5R)-5-[3-[(3S)-4-[4-chloro-3-(trifluoromethyl)phenyl]-3-methyl-piperazin-1-yl]-3-oxo-propyl]-5-methyl-imidazolidine-2,4-dione]: the IC50 was 0.899 µM at human ADAMTS-5 and more than 4 µM at human TACE.
Taken in the same sequence, the figures for `COCC1(CC(C)C(=O)N2CCN(c3ccc(Cl)c(C(F)(F)F)c3)[C@@H](C)C2)NC(=O)NC1=O` (stereo partly drawn) [compound 478, 5-{3-[(S)-4-(4-Chloro-3-trifluoromethyl-phenyl)-3-methyl-piperazin-1-yl]-2-methyl-3-oxo-propyl}-5-methoxymethyl-imidazolidine-2,4-dione] were 0.061 µM and more than 4 µM.

Values taken from US9926281B2 (priority 2014, dated 2018).
